Read-outs that look alike come from different tables or passages of the source.
Experiments:
human B1 receptor = biological target: T1, human B1 receptor (Homo sapiens, UniProt P46663); test: Calcium flux assay (FLIPR) with recombinant CHO-K1 cells expressing human B1 receptor; format: cell-based; settings: agonist Lys-(Des-Arg)-Bradykinin
T1 construct: host or cells: CHO-K1
T1 sequence (P46663 1-353): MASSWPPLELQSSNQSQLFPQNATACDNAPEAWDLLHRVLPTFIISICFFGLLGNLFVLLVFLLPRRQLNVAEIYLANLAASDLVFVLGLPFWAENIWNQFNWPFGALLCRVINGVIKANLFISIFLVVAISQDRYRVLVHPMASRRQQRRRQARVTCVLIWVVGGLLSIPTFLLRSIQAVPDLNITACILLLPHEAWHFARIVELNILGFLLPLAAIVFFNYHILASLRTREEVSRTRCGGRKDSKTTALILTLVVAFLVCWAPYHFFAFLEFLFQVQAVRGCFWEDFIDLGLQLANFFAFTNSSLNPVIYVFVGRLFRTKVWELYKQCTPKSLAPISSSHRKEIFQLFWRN
Procedure: The potency to inhibit the Bradykinin B1 receptors was determined for the example compounds of this invention in a cell-based fluorescent calcium-mobilisation assay. The assay measures the ability of example compounds to inhibit Bradykinin B1 receptor agonist-induced increase of intracellular free Ca^2+ in the cell line expressing B1 receptor. Specifically, calcium indicator—loaded cells are pre-incubated in the absence or presence of different concentrations of example compounds followed by the stimulation with a selective B1 receptor agonist peptide. The change of the intracellular Ca^2+ concentration is monitored with a fluorescent plate reader FLIPR (Molecular Devices).
Calcium flux Assay (FLIPR) with recombinant cells for Bradykinin B1 receptor antagonist, either in the presence (hB1 IC50) or absence (hB1 free IC50) of 0.1% BSA in assay buffer
CHO-K1 cell line expressing human B1 receptor was purchased from Euroscreen (Gosselies, Belgium, with reference name hB1-D1). The cells were grown in Nutrient Mixture Ham's F12 (Sigma) containing 10% Foetal bovine serum (Sigma) and 400 μg/mL G418 (Sigma), 5 μg/mL puromycin (Sigma).
For the calcium flux assay, 80% confluent cells were detached from the culture vessels with Versene (Gibco), and seeded into 384-well plates (Cell binding Surface; Corning, N.Y.; #3683) at a density of 15,000 cells per well. Cells were seeded in a volume of 50 μL in medium without antibiotics and incubated overnight in a humidified atmosphere with 5% CO2 at 37° C. […] The calcium indicator loaded cells were incubated at 37° C. for 2 hrs. Extracellular dye was then removed and each well was filled with 45 μL of assay buffer. Cell plates were kept in dark until used. Example compounds were assayed at 8 concentrations in triplicate. Serial 10-fold dilutions in 100% DMSO were made at a 100-times higher concentration than the final concentration, and then diluted 1:10 in assay buffer. 5 μL of each diluted compound was added to the well of cell plates (yielding final concentration with 1% DMSO), and incubated for 30 min at 28° C. before the addition of B1 receptor agonist on the FLIPR instrument.
Agonist plates contained the agonist Lys-(Des-Arg)-Bradykinin (Bachem, Brackley) at 3.5×EC90 in assay buffer with 1% DMSO. The addition of agonist 20 μl per well to the assay plate was carried out on the FLIPR instrument while continuously monitoring Ca^2+-dependent fluorescence at 538 nm. A peptide antagonist Lys-(Des-Arg-Leu)-Bradykinin (Bachem, Brackley) at 20 µM was used to determine the full inhibition as control.
Peak fluorescence was used to determine the response to agonist obtained at each concentration of example compound by the following equation:
% Response=100*(RFU(example compound)−RFU(control)/(RFU(DMSO)−RFU(control)) • Control=full inhibition by the peptide antagonist Lys-(Des-Arg-Leu)-Bradykinin at 20 μM
The response values were plotted against the logarithm of the compound concentrations. The compounds were tested in triplicates per plate and mean values were plotted in Excel XLfit to determine IC50 values, percentage of maximal inhibition and the Hill slopes.

[1] = biological target: T2, native human B1 receptors (Homo sapiens, UniProt P46663); test: Calcium flux assay (FLIPR) with IMR-90 human foetal lung fibroblasts after IL-1 induction; format: cell-based; settings: IMR-90 fibroblasts induced with human IL-1; 0.1% BSA in assay buffer; agonist Lys-(Des-Arg)-Bradykinin at EC90; read-out: hB1 IC50 IMR90
T2 construct: which express native human B1 receptors after induction with human IL-1; Coriell Institute; host or cells: IMR-90 human foetal lung fibroblasts, induced with human IL-1
T2 sequence (P46663 1-353): T1 sequence (P46663 1-353)
Procedure: Calcium Flux Assay (FLIPR) with Human Fibroblasts for Bradykinin B1 Receptor Antagonist (hB1 IMR-90 IC50)
The Calcium flux Assay was carried out utilising IMR-90 human foetal lung fibroblasts (American Type Culture Collection, Rockville, Md.; and Coriell Institute, Camden, N.J.), which express native human B1 receptors after induction with human IL-1[…].
The fibroblasts were cultured in complete growth media comprised of Dulbecco's modified Eagle's medium (DMEM; Sigma) containing 10% foetal bovine serum, 4 mM L-glutamine, and 1% nonessential amino acids. The cells were maintained in a humidified atmosphere with 5% CO2 at 37° C. and were sub-cultured at a ratio of 1:3, every other day.
For the assay, IMR-90 fibroblasts were harvested using TrypLE Express (GIBCO/Invitrogen) and seeded into 384-well plates (Corning Cellbinding Surface, Cat. 3683) at a density of 15000 cells/well. The following day, cells were treated with 0.35 ng/mL human IL-1[…] in 10% FBS/MEM for 3 h to up-regulate B1 receptors. Induced cells were loaded with fluorescent calcium indicator by incubation with 2.5 μM Fluo-4/AM (Invitrogen) at 37° C., 5% CO2 for 2 h in the presence of 2.5 mM probenecid in 1% FBS/MEM. Extracellular dye was removed by washing with assay buffer (2.5 mM probenecid and 0.1% BSA in 20 mM HEPES/HBSS without bicarbonate or phenol red, pH 7.5). Example compounds were assayed at 8 concentrations in triplicate. After addition of example compounds to the cell plate and incubation for 30 min at 28° C., the addition of B1 agonist Lys-(Des-Arg)-Bradykinin (Bachem, Brackley) at a final concentration of EC90 was carried out on the FLIPR instrument while continuously monitoring Ca^2+-dependent fluorescence at 538 nm. A peptide antagonist Lys-(Des-Arg-Leu)-Bradykinin (Bachem, Brackley) at 20 μM was used to determine the full inhibition as control. IC50 values were determined by the same way described for the FLIPR assay with recombinant cells.

## O=C(O)c1cc(NC(=O)C2CC2c2ccc(Cl)cc2)cc(F)c1-c1cnn(C2CCC2)c1 (racemic) [Example 2, 5-({[2-(4-chlorophenyl)cyclopropyl]carbonyl}amino)-2-(1-cyclobutyl-1H-pyrazol-4-yl)-3-fluorobenzoic acid]
Human B1 receptor; absence of 0.1% BSA in assay buffer, read-out: hB1 free IC50
  IC50: 22 nM
Human B1 receptor; presence of 0.1% BSA in assay buffer, read-out: hB1 IC50
  IC50: 78 nM
[1]
  IC50: 66 nM

From patent US20190177279A1, “CARBOXYLIC ACID AROMATIC 1,2-CYCLOPROPYLAMIDES” (Bayer Pharma Aktiengesellschaft, priority 2017, published 2019)
